pIC50: −log10 of the molar value.
test system: Her2; test: IC50 range for inhibition of Her2 degradation (Table 8); format: cell-based; conditions: Homo sapiens
Method: Human high-Her2 breast carcinoma BT474 (HTB-20), SK-BR-3 (HTB-30) and MCF-7 breast carcinoma (HTB-22) from American Type Culture Collection, VA, USA were grown in Dulbecco's modified Eagle's medium with 4 mM L-glutamine and antibiotics (100 IU/ml penicillin and 100 ug/ml streptomycine; GibcoBRL). To obtain exponential cell growth, cells were trypsinized, counted and seeded at a cell density of 0.5×10^6 cells/ml regularly, every 3 days. All experiments were performed on day 1 after cell passage. […]
After treatment with a compound of the invention, cells were washed twice with 1×PBS/1% FBS, and then stained with anti-Her2-FITC (#340553, BD) for 30 min at 4° C. Cells were then washed three times in FACS buffer before the fixation in 0.5 ml 1% paraformadehydrede. Data was acquired on a FACSCalibur system. Isotype-matched controls were used to establish the non-specific staining of samples and to set the fluorescent markers. A total 10,000 events were recorded from each sample. Data were analysed by using CellQuest software (BD Biosciences).

| SMILES | pIC50 |
| --- | --- |
| Oc1ccc(-c2nnc(S)n2-c2ccc(O)c3ccccc23)c(O)c1 [Compound 87, 3-(2,4-Dihydroxyphenyl)-4-(4-hydroxy-naphthalen-1-yl)-5-mercapto-triazole] | > 5.52 |
| COc1cc(-c2nnc(S)n2-c2cccc3ccccc23)c(O)cc1O [Compound 177, 3-(2,4-Dihydroxy-5-methoxy-phenyl)-4-(naphthalen-1-yl)-5-mercapto-triazole] | > 5.52 |
| Cc1cc(-n2c(S)nnc2-c2ccc(O)cc2O)c2ccccc2n1 [Compound 51, 3-(2,4-Dihydroxyphenyl)-4-(2-methyl-quinolin-4-yl)-5-mercapto-triazole] | 4.00 to 5.00 |
| CCn1cc(-c2nnc(S)n2-c2cccc3ccccc23)c(O)cc1=O [Compound 59, 3-(1-ethyl-4-hydroxy-6-oxo-1,6-dihydro-pyridin-3-yl)-4-(naphthalen-1-yl)-5-mercapto-triazole] | 4.00 to 5.00 |
| CCc1cc(-c2nnc(S)n2-c2cccc3c2ccn3C(C)C)c(O)cc1O [Compound 100, 3-(2,4-Dihydroxy-5-ethyl-phenyl)-4-(1-isopropyl-indol-4-yl)-5-mercapto-triazole] | > 5.52 |
| CCOc1ccc2c(-n3c(S)nnc3-c3ccc(O)cc3O)cccc2c1 [Compound 6] | 5.00 to 5.52 |
| Cc1cc(C)cc(-n2c(S)nnc2-c2ccc(O)cc2O)c1 [Compound 30] | 4.00 to 5.00 |
| Oc1ccc(-c2nnc(S)n2-c2ccc3c4c(cccc24)CC3)c(O)c1 [Compound 36, 3-(2,4-Dihydroxyphenyl)-4-(acenaphthalen-5-yl)-5-mercapto-triazole] | 5.00 to 5.52 |
| Cc1ccc(-n2c(S)nnc2-c2ccc(O)cc2O)c(C)c1 [Compound 28, 3-(2,4-Dihydroxyphenyl)-4-(2,4-dimethyl-phenyl)-5-mercapto-triazole] | 5.00 to 5.52 |
| CC(=O)Oc1ccc(-c2nnc(SC(C)=O)n2-c2cccc3ccccc23)c(OC(C)=O)c1 [Compound 122, 3-(2,4-Diacetoxy-phenyl)-4-(naphthalen-1-yl)-5-(acetylsulfanyl)-triazole] | 5.00 to 5.52 |
| COc1ccc(-n2c(S)nnc2-c2ccc(O)cc2O)cc1 [Compound 22, 3-(2,4-Dihydroxyphenyl)-4-(4-methoxyphenyl)-5-mercapto-triazole] | 4.00 to 5.00 |
| Oc1ccc(-c2nnc(S)n2-c2cccc3c2CCCC3)c(O)c1 [Compound 42, 3-(2,4-Dihydroxyphenyl)-4-(1,2,3,4-tetrahydronaphthalen-5-yl)-5-mercapto-triazole] | 5.00 to 5.52 |
| O=C(c1ccccc1)c1cccc(-n2c(S)nnc2-c2ccc(O)cc2O)c1 [Compound 64, 3-[2,4-Dihydroxy-phenyl]-4-(3-benzoylphenyl)-5-mercapto-triazole] | 5.00 to 5.52 |
| CCc1cc(-c2nnc(S)n2-c2cccc3c2ncn3CC)c(O)cc1O [Compound 102, 3-(2,4-Dihydroxy-5-ethyl-phenyl)-4-(1-ethyl-benzoimidazol-4-yl)-5-mercapto-triazole] | 4.00 to 5.00 |
| Cn1cc(-c2nnc(S)n2-c2cccc3ccccc23)c(O)cc1=O [Compound 60] | 4.00 to 5.00 |
| CCc1cc(-c2nnc(S)n2-c2ccc(OC)c(C)c2C)c(O)cc1O [Compound 79, 3-(2,4-Dihydroxy-5-ethyl-phenyl)-4-(2,3-dimethy-4-methoxy-phenyl)-5-mercapto-triazole] | > 5.52 |
| CC(C)Oc1ccc2c(-n3c(S)nnc3-c3ccc(O)cc3O)cccc2c1 [Compound 9] | 5.00 to 5.52 |
| CCc1cc(-c2nnc(S)n2-c2ccc(N(C)C)c(OC)c2)c(O)cc1O [Compound 259, 4-(4-(4-(dimethylamino)-3-methoxyphenyl)-5-mercapto-4H-1,2,4-triazol-3-yl)-6-ethylbenzene-1,3-diol] | > 5.52 |
| CCc1cc(-c2nnc(S)n2-c2ccc(OC)c(N(C)C)c2)c(O)cc1O [Compound 251, 4-(4-(3-(dimethylamino)-4-methoxyphenyl)-5-mercapto-4H-1,2,4-triazol-3-yl)-6-ethylbenzene-1,3-diol] | > 5.52 |
| COc1cccc2c(-n3c(S)nnc3-c3ccc(O)cc3O)cccc12 [Compound 39, 3-(2,4-Dihydroxyphenyl)-4-(5-methoxynaphthalen-1-yl)-5-mercapto-triazole] | > 5.52 |
| Oc1cc(O)c(-c2nnc(S)n2-c2cccc3ccccc23)cc1O [Compound 184, 3-(2,4,5-Trihydroxy-phenyl)-4-(naphthalene-1-yl)-5-mercapto-triazole] | 5.00 to 5.52 |
| CCc1cc(-c2nnc(S)n2-c2cccc3c(O)cccc23)c(O)cc1O [Compound 178, 3-(2,4-Dihydroxy-5-ethyl-phenyl)-4-(5-hydroxy-naphthalen-1-yl)-5-mercapto-triazole] | > 5.52 |
| CCc1cc(-c2nnc(S)n2-c2cccc3cc(OC)ccc23)c(O)cc1O [Compound 77, 3-(2,4-Dihydroxy-5-ethyl-phenyl)-4-(6-methoxy-naphthalin-1-yl)-5-mercapto-triazole] | > 5.52 |
| CCc1cc(-c2nnc(S)n2-c2cccc(N(C)C)c2)c(O)cc1O [Compound 252, 4-(4-(3-(dimethylamino)phenyl)-5-mercapto-4H-1,2,4-triazol-3-yl)-6-ethylbenzene-1,3-diol] | > 5.52 |
| Oc1ccc(-c2nnc(S)n2-c2cccc3[nH]ccc23)c(O)c1 [Compound 95, 3-(2,4-Dihydroxy-phenyl)-4-(indol-4-yl)-5-mercapto-triazole] | > 5.52 |
| CC(=O)Oc1ccc(-c2nnc(S)n2-c2cccc3ccccc23)c(OC(C)=O)c1 [Compound 123, 3-(2,4-Diacetoxy-phenyl)-4-(naphthalen-1-yl)-5-mercapto-triazole] | 4.00 to 5.00 |
